Earlier results on one molecule are cited in patent US8444622B2, “Device, system, and method for targeted delivery of anti-inflammatory medicaments to a mammalian subject” (The Invention Science Fund I, LLC, priority 2009, dated 2013).

For `COc1ccc2cc([C@H](C)C(=O)O)ccc2c1` [naproxen], where the note is “appreciable drug concentrations may still be measurable after 24 hours”, the “elimination from synovial fluid” value was “slow”. The “time to steady-state in synovial fluid” value (once daily dosing of naproxen sodium) is given as “within a week”. For the same molecule, the “predicted accumulation ratio based on trough concentration” value (synovial fluid, once daily dosing of naproxen sodium) is 2.4.
